A short description of data set [1]: cell cytotoxicity in a cell viability assay (CC50). In kind it is cell-based. To be noted: concentration required for 50% cell survival. From the text: As used herein, “CC50,” is intended to refer to the cell cytotoxicity to the concentration of a substance (e.g., a compound or a drug) that is required for 50% cell survival in a cell viability assay in vitro.

Another data set concerns CHIKV. In words: antiviral activity against CHIKV (VTR and EC90). The note with it: Chikungunya virus; for log reduction at 10 µM: read-out: VTR @ 10 μM (logs). In kind it is cell-based. From the text: As used herein, “EC90,” is intended to refer to the concentration of a substance (e.g., a compound or a drug) that is required for 90% agonism of a biological process, or component of a process, including a protein, subunit, organelle, ribonucleoprotein, etc. In one aspect, an EC90 can refer to the concentration of a substance that is required for 90% agonism in vivo, as further defined elsewhere herein. In a further aspect, […].

One may read the CC50 as the concentration that lowers cell viability or growth by half. A high value points to better tolerance by the cells. What is called EC90 is the concentration at which the effect reaches the 90% level. Consider `CC(C)(C)c1ccc(C(=O)Nc2nc(-c3cccc(-c4ccc(CN)cc4)c3)cs2)cc1` [Compound 27, N-(4-(4′-(Aminomethyl)-[1,1′-biphenyl]-3-yl)thiazol-2-yl)-4-(tert-butyl)benzamide], for which, in data set [1], the CC50 came out at 9.02 µM. Also, in the data set with CHIKV, the EC90 turned out to be 1.27 µM and the log reduction at 10 µM turned out to be 5.24.
Regarding `CSc1ncccc1C(=O)Nc1nc(-c2cccc(N3CCCC3=O)c2)cs1` [Compound 35, 2-(Methylthio)-N-(4-(3-(2-oxopyrrolidin-1-yl)phenyl)thiazol-2-yl)nicotinamide], in data set [1], the CC50 came to 39.4 µM. The log reduction at 10 µM in the data set on CHIKV was below 1.
`N#Cc1ccc(-c2cccc(-c3csc(NC(=O)C4CCNCC4)n3)c2)cc1` [Compound 11, N-(4-(4′-Cyano-[1,1′-biphenyl]-3-yl)thiazol-2-yl)piperidine-4-carboxamide]: the CC50 in data set [1] is above 30 µM. The log reduction at 10 µM in the data set with CHIKV was found to be 8.5.
The matching figures for `CC(C)(C)c1cnc(C(=O)Nc2nc(-c3cccc(-c4ccc(C#N)cc4)c3)cs2)nc1` [Compound 8, 5-(Tert-butyl)-N-(4-(4′-cyano-[1,1′-biphenyl]-3-yl)thiazol-2-yl)pyrimidine-2-carboxamide]: above 40 µM and below 1.
`CSc1ncccc1C(=O)Nc1nc(-c2cccc(Oc3ccccc3)c2)cs1` [Compound 36, 2-methylsulfanyl-N-[4-(3-phenoxyphenyl)thiazol-2-yl]pyridine-3-carboxamide] came in with a cytotoxic concentration (CC50) in data set [1] above 40 µM. In the data set with CHIKV, the log reduction at 10 µM is 4.87.
In data set [1], `CSc1ncccc1C(=O)Nc1nc(-c2cc(-c3ccc(C#N)cc3)ccc2F)cs1` [Compound 17, N-(4-(4′-Cyano-4-fluoro-[1,1′-biphenyl]-3-yl)thiazol-2-yl)-2-(methylthio)nicotinamide] displayed a CC50 of 25 µM. In addition, in the data set on CHIKV, it took 0.34 µM to reach the 90% level (EC90) and the log reduction at 10 µM was 5.75.
`CC(C)(C)c1ccc(C(=O)Nc2nc(-c3cccc(-c4ccc(C#N)cc4)c3)cs2)cc1` [Compound 9, 4-(Tert-butyl)-N-(4-(4′-cyano-[1,1′-biphenyl]-3-yl)thiazol-2-yl)benzamide]: the CC50 in data set [1] is above 40 µM. Also, in the data set with CHIKV, the EC90 was 0.28 µM and the log reduction at 10 µM came out at 4.68.
Regarding `CC(C)(C#N)c1ccc(C(=O)Nc2nc(-c3cccc(Nc4ccc(C#N)cc4)c3)cs2)cc1` [Compound 44, N-(4-(3-((4-cyanophenyl)amino)phenyl)thiazol-2-yl)-4-(2-cyanopropan-2-yl)benzamide], the CC50 in data set [1] was above 40 µM. For the same molecule, in the data set with CHIKV, the EC90 is 0.98 µM and the log reduction at 10 µM was 2.65.
Take `CSc1ncccc1C(=O)Nc1nc(-c2cccc(N3CCOCC3)c2)cs1` [Compound 34, 2-(Methylthio)-N-(4-(3-morpholinophenyl)thiazol-2-yl)nicotinamide]: the CC50 in data set [1] was above 40 µM. In addition, in the data set with CHIKV, the log reduction at 10 µM was 1.88.
In data set [1], `COc1c(F)cc(C(=O)Nc2nc(-c3cccc(-c4ccc(C#N)cc4)c3)cs2)cc1F` [Compound 10, N-(4-(4′-Cyano-[1,1′-biphenyl]-3-yl)thiazol-2-yl)-3,5-difluoro-4-methoxybenzamide] showed a CC50 above 30 µM. In addition, in the data set with CHIKV, the EC90 amounted to 0.31 µM and the log reduction at 10 µM was 7.6.
`COc1ccc(-c2ccc(C#N)cc2)cc1-c1csc(NC(=O)c2cccnc2SC)n1` [Compound 18, N-(4-(4′-Cyano-4-methoxy-[1,1′-biphenyl]-3-yl)thiazol-2-yl)-2-(methylthio)nicotinamide] had a CC50 in data set [1] above 40 µM. The log reduction at 10 µM with CHIKV is 1.73.
Turning to `CSc1ncccc1C(=O)Nc1nc(-c2cccc(N3CCN(S(C)(=O)=O)CC3)c2)cs1` [Compound 33, N-(4-(3-(4-(methylsulfonyl)piperazin-1-yl)phenyl)thiazol-2-yl)-2-(methylthio)nicotinamide], the CC50 in data set [1] was above 40 µM. Moreover, in the data set on CHIKV, the log reduction at 10 µM worked out at 2.04.
The molecule `CSc1ncccc1C(=O)Nc1nc(-c2cccc(-c3ccc(C#N)c(O)c3)c2)cs1` [Compound 22, N-(4-(4′-Cyano-3′-hydroxy-[1,1′-biphenyl]-3-yl)thiazol-2-yl)-2-(methylthio)nicotinamide] showed a CC50 in data set [1] above 30 µM. In the data set on CHIKV, the EC90 came to 1.6 µM and the log reduction at 10 µM worked out at 8.5.
`CSc1ncccc1C(=O)Nc1nc(-c2cccc(-c3ccccn3)c2)cs1` [Compound 2, 2-(Methylthio)-N-(4-(3-(pyridin-2-yl)phenyl)thiazol-2-yl)nicotinamide] registered a CC50 in data set [1] above 30 µM. Further, in the data set with CHIKV, the 90% effect concentration (EC90) was 0.7 µM and the log reduction at 10 µM stood at 3.97.
With `CSc1ncccc1C(=O)Nc1nc(-c2cc(Cl)cc(Nc3ccc(C#N)cc3)c2)cs1` [Compound 49, N-(4-(3-chloro-5-((4-cyanophenyl)amino)phenyl)thiazol-2-yl)-2-(methylthio)nicotinamide], in data set [1], the CC50 was above 40 µM. For the same molecule, in the data set with CHIKV, the 90% effect level (EC90) was put at 0.21 µM and the log reduction at 10 µM was found to be 5.84.
In data set [1], `CC(C)(C)c1ccc(C(=O)Nc2nc(-c3cccc(Nc4ccc(C#N)cc4)c3)cs2)nc1` [Compound 41, 5-(Tert-Butyl)-N-(4-(3-((4-cyanophenyl)amino)phenyl)thiazol-2-yl)picolinamide] showed a CC50 above 40 µM. Also, in the data set on CHIKV, the concentration for an effect of 90% (EC90) is above 10 µM and the log reduction at 10 µM was 0.82.
Molecule `N#Cc1ccc(Nc2cccc(-c3csc(NC(=O)C45CC(C#N)(C4)C5)n3)c2)cc1` [Compound 52, 3-cyano-N-(4-(3-((4-cyanophenyl)amino)phenyl)thiazol-2-yl)bicyclo[1.1.1]pentane-1-carboxamide] yielded a CC50 in data set [1] of 9 µM. In addition, in the data set on CHIKV, the EC90 stood at 1.5 µM and the log reduction at 10 µM amounted to 5.58.
In turn, `CSc1ncccc1C(=O)Nc1nc(-c2cc(C(=O)O)cc(-c3ccc(C#N)cc3)c2)cs1` [Compound 21, 4′-cyano-5-(2-(2-(methylthio)nicotinamido)thiazol-4-yl)-[1,1′-biphenyl]-3-carboxylic Acid] showed a CC50 in data set [1] above 40 µM. In addition, in the data set on CHIKV, the log reduction at 10 µM is below 1.
The matching figures for `COc1ncc(-c2cccc(-c3csc(NC(=O)c4cccnc4SC)n3)c2)cn1` [Compound 28, N-(4-(3-(2-Methoxypyrimidin-5-yl)phenyl)thiazol-2-yl)-2-(methylthio)nicotinamide]: above 40 µM and 2.52.
`CSc1ncccc1C(=O)Nc1nc(-c2cccc(-c3cccc(C#N)c3)c2)cs1` [Compound 5, N-(4-(3′-Cyano-[1,1′-biphenyl]-3-yl)thiazol-2-yl)-2-(methylthio)nicotinamide] came in with a CC50 in data set [1] above 40 µM. Besides, in the data set with CHIKV, the 90% effect level (EC90) was put at 0.098 µM and the log reduction at 10 µM is 5.25.
As to `COC(=O)c1ccc(-c2cccc(-c3csc(NC(=O)c4cccnc4SC)n3)c2)cc1` [Compound 23, Methyl 3′-(2-(2-(methylthio)nicotinamido)thiazol-4-yl)-[1,1′-biphenyl]-4-carboxylate], the CC50 in data set [1] is above 40 µM. Besides, in the data set with CHIKV, the EC90 was determined as 0.822 µM and the log reduction at 10 µM was determined as 8.69.
Molecule `COc1cc(Nc2cccc(-c3csc(NC(=O)c4cccnc4SC)n3)c2)ccc1C#N` [Compound 46, N-(4-(3-((4-yano-3-methoxyphenyl)amino)phenyl)thiazol-2-yl)-2-(methylthio)nicotinamide] returned a half-maximal cytotoxic concentration (CC50) in data set [1] above 40 µM. For the same molecule, in the data set with CHIKV, the EC90 is 0.34 µM and the log reduction at 10 µM was determined as 5.06.

The record behind these values is US20200399264A1, “4-SUBSTITUTED-2-THIAZOLE AMIDES AS ANTIVIRAL AGENTS” (Southern Research Institute, priority 2019, published 2020).
